# Data: US20240376108A1, “SALT AND CRYSTAL FORM OF PYRAZOLE-CONTAINING POLYCYCLIC DERIVATIVE, AND PREPARATION METHOD THEREFOR AND USE THEREOF” (Shanghai Hansoh Biomedical Co., Ltd., priority 2021, published 2024)
# How the values were obtained:
# [1] = Pharmacokinetic assay of the salt forms in rats (10 mg/kg); assay type: in vivo; settings: SD rats
# [2] = Solid stability experiment (high temperature, high humidity, high temperature and high humidity); assay type: physicochemical
# Protocol: 4.1.1 Experimental objective: To investigate the physical and chemical stability of the crystal form of the compound under the conditions of high temperature, high humidity, as well as high temperature and high humidity, so as to provide a basis for crystal form screening and storage of the crystal form of the compound.
# The content of the salt was determined by HPLC using the external standard method, and the change of relevant substances was calculated by using the chromatographic peak area normalization method.
# [3] = Solubility experiment in different media; assay type: physicochemical; settings: for solubility at 24 h: thermodynamic from solid
# Protocol: The vials were placed on a spin mixer overnight at room temperature. After 24 hours, the sample solution was filtered through a 0.45 μm mixed aqueous fiber membrane. The content of the compound in the filtrate was determined by HPLC. [table]
# [4] = Thermodynamic stability experiment (polymorphism screening of the methanesulfonate); assay type: physicochemical; settings: pulped in solvents at 35° C. for 24 hours, XRPD
# Protocol: 6.1 Polymorphism screening of the methanesulfonate of compound 2-(2-cyano-5-oxo-8-(trifluoromethyl)pyrazolo[1,5-a]pyrido[3,2-e]pyrimidin-4(5H)-yl)-N-(5-fluoropyridin-2-yl)acetamide
# The mixture was magnetically pulped in a metal bath at 35° C. for 24 hours, and centrifuged. The resulting solid was dried, and the XRPD thereof was determined.
# [5] = Hygroscopicity experiment (DVS); assay type: physicochemical
# Procedure, shortened: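 Crystalline salt forms equilibrated with water vapour at a range of relative humidities (DVS). Percentage weight gain at equilibrium recorded.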
# [6] = High humidity (92.5% RH), Day 7
# [7] = High humidity (92.5% RH), Day 14
# [8] = High temperature (60° C.), Day 7
# [9] = High temperature (60° C.), Day 14
# [10] = High temperature and high humidity (50° C.&75% RH), Day 7
# [11] = High temperature and high humidity (50° C.&75% RH), Day 14
# [12] = Cycle 1, target relative humidity 0.0%, 25° C.
# [13] = Cycle 1, target relative humidity 10.0%, 25° C.
# [14] = Cycle 1, target relative humidity 20.0%, 25° C.
# [15] = Cycle 1, target relative humidity 30.0%, 25° C.
# [16] = Cycle 1, target relative humidity 40.0%, 25° C.
# [17] = Cycle 1, target relative humidity 50.0%, 25° C.
# [18] = Cycle 1, target relative humidity 60.0%, 25° C.
# [19] = Cycle 1, target relative humidity 70.0%, 25° C.
# [20] = Cycle 1, target relative humidity 80.0%, 25° C.
# [21] = Cycle 1, target relative humidity 90.0%, 25° C.
# [22] = Cycle 1, target relative humidity 95.0%, 25° C.
# [23] = Cycle 2, target relative humidity 0.0%, 25° C.
# [24] = Cycle 2, target relative humidity 10.0%, 25° C.
# [25] = Cycle 2, target relative humidity 20.0%, 25° C.
# [26] = Cycle 2, target relative humidity 30.0%, 25° C.
# [27] = Cycle 2, target relative humidity 40.0%, 25° C.
# [28] = Cycle 2, target relative humidity 50.0%, 25° C.
# [29] = Cycle 2, target relative humidity 60.0%, 25° C.
# [30] = Cycle 2, target relative humidity 70.0%, 25° C.
# [31] = Cycle 2, target relative humidity 80.0%, 25° C.
# [32] = Cycle 2, target relative humidity 90.0%, 25° C.
# [33] = Cycle 2, target relative humidity 95.0%, 25° C.
smiles,measurement,setting,value
"CS(=O)(=O)O.N#Cc1cc2n(CC(=O)Nc3ccc(F)cn3)c(=O)c3ccc(C(F)(F)F)nc3n2n1 [Methanesulfonate (crystal form A), 2-(2-cyano-5-oxo-8-(trifluoromethyl)pyrazolo[1,5-a]pyrido[3,2-e]pyrimidin-4(5H)-yl)-N-(5-fluoropyridin-2-yl)acetamide methanesulfonate]",exposure AUC and maximum plasma concentration Cmax compared with the free base,[1]; 10 mg/kg,superior
same,AUC(0-t),"[1]; male, rat, po, p.o. 10 mg/kg, plasma, vehicle 0.5% HPMC, read-out: Area under curve AUC0-t",25800 ng·h/mL
same,MRT inf,"[1]; male, rat, po, p.o. 10 mg/kg, plasma, vehicle 0.5% HPMC, read-out: Average residence time MRT0-∞",4.8 h
same,half-life,"[1]; male, rat, po, p.o. 10 mg/kg, plasma, vehicle 0.5% HPMC, read-out: Half life t1/2 (converted)",2.7 h
same,Tmax,"[1]; male, rat, po, p.o. 10 mg/kg, plasma, vehicle 0.5% HPMC, read-out: Peak time tmax",4 h
same,Cmax,"[1]; male, rat, po, p.o. 10 mg/kg, plasma, vehicle 0.5% HPMC, read-out: Plasma concentration Cmax",3320 ng/mL
same,solid stability under high temperature and high humidity,"[2]; 50° C.&75% RH, 7 and 14 days",stable
same,solid stability under high temperature,"[2]; 60° C., 7 and 14 days",stable
same,solid stability under high humidity,"[2]; 92.5% RH, 7 and 14 days",stable
same,% increase of total impurities,[2]; [6],<0.1%
same,% maximum increase of single impurity,[2]; [6],<0.1%
same,% increase of total impurities,[2]; [7],<0.1%
same,% maximum increase of single impurity,[2]; [7],<0.1%
same,% increase of total impurities,[2]; [8],<0.2%
same,% maximum increase of single impurity,[2]; [8],<0.1%
same,% increase of total impurities,[2]; [9],<0.1%
same,% maximum increase of single impurity,[2]; [9],<0.1%
same,% increase of total impurities,[2]; [10],<0.1%
same,% maximum increase of single impurity,[2]; [10],<0.1%
same,% increase of total impurities,[2]; [11],<0.1%
same,% maximum increase of single impurity,[2]; [11],<0.1%
same,solubility at 24 h,"[3]; aqueous buffer, USP Buffer pH 3, room temperature",4.3 µg/mL
same,solubility at 24 h,"[3]; aqueous buffer, USP Buffer pH 4, room temperature",3.6 µg/mL
same,solubility at 24 h,"[3]; aqueous buffer, USP Buffer pH 5, room temperature",3 µg/mL
same,solubility at 24 h,"[3]; aqueous buffer, USP Buffer pH 6, room temperature",2.4 µg/mL
same,solubility at 24 h,"[3]; aqueous buffer, USP Buffer pH 7, room temperature",2.2 µg/mL
same,solubility at 24 h,"[3]; aqueous buffer, USP Buffer pH 8, room temperature",1.8 µg/mL
same,solubility at 24 h,"[3]; fassgf or other biorelevant, FaSSGF, room temperature",3.3 µg/mL
same,solubility at 24 h,"[3]; pure water, water, H2O, room temperature",1.9 µg/mL
same,solubility in the corresponding media compared with crystal form II of the free base,"[3]; room temperature, 24 hours, buffers, FaSSGF, FaSSIF, FeSSIF, water",increased by more than four times
same,solubility at 24 h,"[3]; simulated gastric fluid, USP Buffer pH 1, room temperature",2.3 µg/mL
same,solubility at 24 h,"[3]; simulated gastric fluid, USP Buffer pH 2, room temperature",2.3 µg/mL
same,solubility at 24 h,"[3]; FaSSIF, room temperature",7.8 µg/mL
same,solubility at 24 h,"[3]; FeSSIF, room temperature",11.3 µg/mL
same,thermodynamic stability of the crystal form,[4],thermodynamically stable crystal form
same,hygroscopicity (Chinese Pharmacopoeia description),"[5]; 25° C., relative humidity 80%",slightly hygroscopic
same,hygroscopic weight gain,[5]; 80% relative humidity,≤ 0.5%
same,"% percentage of mass change, Desorption",[5]; [12],−0.029%
same,"% percentage of mass change, Sorption",[5]; [12],0.000%
same,"% percentage of mass change, Desorption",[5]; [13],0.030%
same,"% percentage of mass change, Sorption",[5]; [13],0.051%
same,"% percentage of mass change, Desorption",[5]; [14],0.082%
same,"% percentage of mass change, Sorption",[5]; [14],0.096%
same,"% percentage of mass change, Desorption",[5]; [15],0.133%
same,"% percentage of mass change, Sorption",[5]; [15],0.138%
same,"% percentage of mass change, Desorption",[5]; [16],0.190%
same,"% percentage of mass change, Sorption",[5]; [16],0.179%
same,"% percentage of mass change, Desorption",[5]; [17],0.253%
same,"% percentage of mass change, Sorption",[5]; [17],0.222%
same,"% percentage of mass change, Desorption",[5]; [18],0.320%
same,"% percentage of mass change, Sorption",[5]; [18],0.272%
same,"% percentage of mass change, Desorption",[5]; [19],0.395%
same,"% percentage of mass change, Sorption",[5]; [19],0.340%
same,"% percentage of mass change, Desorption",[5]; [20],0.502%
same,"% percentage of mass change, Sorption",[5]; [20],0.446%
same,"% percentage of mass change, Desorption",[5]; [21],0.760%
same,"% percentage of mass change, Sorption",[5]; [21],0.700%
same,"% percentage of mass change, Desorption",[5]; [22],1.109%
same,"% percentage of mass change, Sorption",[5]; [22],1.109%
same,"% percentage of mass change, Desorption",[5]; [23],−0.046%
same,"% percentage of mass change, Sorption",[5]; [23],−0.029%
same,"% percentage of mass change, Desorption",[5]; [24],0.014%
same,"% percentage of mass change, Sorption",[5]; [24],0.024%
same,"% percentage of mass change, Desorption",[5]; [25],0.067%
same,"% percentage of mass change, Sorption",[5]; [25],0.073%
same,"% percentage of mass change, Desorption",[5]; [26],0.118%
same,"% percentage of mass change, Sorption",[5]; [26],0.118%
same,"% percentage of mass change, Desorption",[5]; [27],0.177%
same,"% percentage of mass change, Sorption",[5]; [27],0.162%
same,"% percentage of mass change, Desorption",[5]; [28],0.241%
same,"% percentage of mass change, Sorption",[5]; [28],0.209%
same,"% percentage of mass change, Desorption",[5]; [29],0.305%
same,"% percentage of mass change, Sorption",[5]; [29],0.263%
same,"% percentage of mass change, Desorption",[5]; [30],0.378%
same,"% percentage of mass change, Sorption",[5]; [30],0.331%
same,"% percentage of mass change, Desorption",[5]; [31],0.480%
same,"% percentage of mass change, Sorption",[5]; [31],0.433%
same,"% percentage of mass change, Desorption",[5]; [32],0.734%
same,"% percentage of mass change, Sorption",[5]; [32],0.675%
same,"% percentage of mass change, Desorption",[5]; [33],1.076%
same,"% percentage of mass change, Sorption",[5]; [33],1.076%
